Results from article PMC11694131 (Haematologica, 2024).
pIC50: −log10 of the molar value. Read-outs that look alike come from different tables or passages of the source.

How the values were obtained:
CCRF-CEM = assay: CellTiter-Glo viability, CCRF-CEM; type: cell-based
RS4;11 = assay: CellTiter-Glo viability, RS4; type: cell-based; details: for pIC50: Homo sapiens, RS4-11, 24 h, read-out: IC50, CellTiter-Glo
PF-382 = assay: CellTiter-Glo viability, PF-382; type: cell-based; details: read-out: IC50, CellTiter-Glo
LOUCY = assay: CellTiter-Glo viability, LOUCY; type: cell-based; details: read-out: IC50, CellTiter-Glo
MOLT4 = assay: CellTiter-Glo viability, MOLT4; type: cell-based; details: read-out: IC50, CellTiter-Glo
[1] = tested on: primary CLL cells cultured with or without NK Tert stroma; assay: Primary CLL cells with or without NK Tert stroma, Annexin V / TMRM; type: cell-based; details: Homo sapiens, CLL cell
[2] = Single-dose dog PK and platelet toxicity study; type: in vivo; details: 25 mg/kg single oral dose
[3] = tested on: treatment-naïve primary CLL cells; assay: TMRM / Annexin V apoptosis assay, treatment-naïve primary CLL cells; type: cell-based; details: Homo sapiens, CLL cell, 18 h, read-out: IC50, apoptosis (TMRM and Annexin V)
[4] = tested on: venetoclax-relapsed primary CLL cells; assay: TMRM / Annexin V apoptosis assay, venetoclax-relapsed primary CLL cells; type: cell-based; details: Homo sapiens, CLL cell, read-out: IC50, apoptosis (TMRM and Annexin V)
platelets = assay: 14-day repeat-dose non-GLP platelet toxicity study in dogs; type: in vivo, dog; details: oral once daily
in vitro = details: human
[5] = tested on: primary CLL cells co-cultured on HS-5 stromal cells; assay: Primary CLL cells co-cultured on HS-5 stroma, Annexin V / TMRM; type: cell-based, human; details: HS-5 co-culture 24 hr
[6] = tested on: OSU-CLL BCL2 knockout (KO) cells; assay: CellTiter-Glo viability, OSU-CLL BCL2 KO; type: cell-based; details: 72 hr, above 200 nM
[7] = tested on: RS4;11 cells with WT BCL2; assay: TMRM / Annexin V staining, RS4; type: cell-based; details: Homo sapiens, RS4-11, 72 h, read-out: IC50, TMRM / Annexin V
RS4;11 WT BCL2 xenograft = assay: RS4; type: in vivo, mouse; details: 6.25 mg/kg orally once daily for 28 days
OSU-CLL xenograft = assay: OSU-CLL xenograft; type: in vivo, mouse; details: 50 mg/kg daily oral gavage
[8] = read-out: IC50, CLL cells co-cultured with NK Tert cells
[9] = read-out: IC50, CLL cells without stromal protection

| Structure (SMILES) | pIC50 [1, 8] | pIC50 [1, 9] | maximum reduction in platelets [2] | pIC50 [3] | pIC50 (RS4;11) | pIC50 (LOUCY; 24 h) | pIC50 [4] | pIC50 (in vitro) | effect of HS-5 stroma on sensitivity of CLL cells [5] | also measured |
| --- | --- | --- | --- | --- | --- | --- | --- | --- | --- | --- |
| Cc1c(-c2ccc(N3CCc4cccc(C(=O)Nc5nc6ccccc6s5)c4C3)nc2C(=O)O)cnn1CC12CC3CC(CC(C3)C1)C2 [A-1331852] |  |  |  |  |  |  |  |  |  | pIC50 (CCRF-CEM; read-out: IC50, CellTiter-Glo, 24 hr): 7.86; IC50, CellTiter-Glo (RS4;11; RS4;11, 24 hr): not effective; pIC50 (PF-382; PF-382, 24 hr): 7.33; pIC50 (LOUCY; LOUCY, 24 hr): 6.89; pIC50 (MOLT4; MOLT4, 24 hr): 8.26 |
| CC1(C)CCC(c2ccc(Cl)cc2)=C(CN2CCN(c3ccc(C(=O)NS(=O)(=O)c4ccc(N[C@H](CCN5CCOCC5)CSc5ccccc5)c(S(=O)(=O)C(F)(F)F)c4)cc3)CC2)C1 [navitoclax] | 7.80 | 8.23 | 97% | 8.00 | 7.38 | 7.32 | 8.38 | 6.77 | does not alter the sensitivity | pIC50 (CCRF-CEM; Homo sapiens, 24 h, read-out: IC50, CellTiter-Glo): 6.31; pIC50 (PF-382; Homo sapiens, PF-382, 24 h): 6.42; dose at which platelet toxicity was induced (platelets): > 3 mg/kg; pIC50 (MOLT4; Homo sapiens, MOLT-4, 24 h): 6.54 |
| CC1(C)CCC(CN2CCN(c3ccc(C(=O)NS(=O)(=O)c4ccc(NCC5CCOCC5)c([N+](=O)[O-])c4)c(Oc4cnc5[nH]ccc5c4)c3)CC2)=C(c2ccc(Cl)cc2)C1 [venetoclax] | 8.92 | 9.04 | 6% | 8.42 | 8.33 | 6.90 | 7.80 | 4.60 | does not alter the sensitivity | plateau of killing [6]: 50%; plasma persistence / clearance at 30 hr post treatment [2]: persisted in plasma; pIC50 [7]: 8.45; median survival (RS4;11 WT BCL2 xenograft): 59 days; tumor volume upon stopping treatment (RS4;11 WT BCL2 xenograft): relapsed and exhibited increased tumor growth; platelet counts throughout treatment (OSU-CLL xenograft): maintained similar platelet counts; survival compared to vehicle (OSU-CLL xenograft): significantly improved the survival |
